Measurements taken from US10570116B2, “1,4-dicarbonyl-piperidyl derivatives” (Merck Patent GmbH, priority 2015, dated 2020).
Read-outs that look alike come from different tables or passages of the source.

Key:
Tankyrases = assay: Measurement of cellular inhibition of Tankyrase (Axin2 level, Luminex based assay, DLD1 cells); format: cell-based; conditions: increase of Axin2 level, 24 hours, read-out: EC50 [M] TNKS cellular assay
TNKS2 = TNKS2 (Homo sapiens (Human), UniProt Q9H2K2); assay: biochemical; format: biochemical
TNKS1 = TNKS1 (Homo sapiens (Human), UniProt O95271); assay: biochemical; format: biochemical
[1] = GST-tagged Tnks-2 (873-1166 aa), read-out: IC50 [M] TNKS2 ELISA
[2] = GST-tagged Tnks-1 (1023-1327 aa), read-out: IC50 [M] TNKS1 ELISA

Row | SMILES | EC50 (Tankyrases) | IC50 (TNKS2; [1]) | IC50 (TNKS1; [2]) | further results
1 | CC(C)CC(CC(=O)N1CCC(C(=O)c2cnn(C)c2)CC1)Cc1nc2ccccc2c(=O)[nH]1 (stereo in doubt) [Compound C10, 2-((S)-4-Methyl-2-{2-[4-(1-methyl-1H-pyrazole-4-carbonyl)-piperidin-1-yl]-2-oxo-ethyl}-pentyl)-3H-quinazolin-4-one] | 9e-08 M | – | – | –
2 | CC(C)CC(CC(=O)N1CCC(C(=O)c2cnn(C)c2)CC1)Cc1nc2ccccc2c(=O)[nH]1 (stereo in doubt) [Compound C11, 2-((R)-4-Methyl-2-{2-[4-(1-methyl-1H-pyrazole-4-carbonyl)-piperidin-1-yl]-2-oxo-ethyl}-pentyl)-3H-quinazolin-4-one] | 5e-09 M | – | – | –
3 | Cn1cc(C(=O)C2CCN(C(=O)CC(C)(C)Cc3nc4ccccc4c(=O)[nH]3)CC2)cn1 [Compound C1, 2-{2,2-Dimethyl-4-[4-(1-methyl-1H-pyrazole-4-carbonyl)-piperidin-1-yl]-4-oxo-butyl}-3H-quinazolin-4-one] | 4.5e-09 M | 3.7e-10 M | 5.7e-10 M | –
4 | C[C@H](CC(=O)N1CCC(C(=O)c2cnn(C)c2)CC1)Cc1nc2ccccc2c(=O)[nH]1 [Compound C2, 2-{(S)-2-Methyl-4-[4-(1-methyl-1H-pyrazole-4-carbonyl)-piperidin-1-yl]-4-oxo-butyl}-3H-quinazolin-4-one] | 4.7e-09 M | – | – | –
5 | C[C@@H](CC(=O)N1CCC(C(=O)c2cnn(C)c2)CC1)Cc1nc2ccccc2c(=O)[nH]1 [Compound C3, 2-{(R)-2-Methyl-4-[4-(1-methyl-1H-pyrazole-4-carbonyl)-piperidin-1-yl]-4-oxo-butyl}-3H-quinazolin-4-one] | 3e-08 M | – | – | –
6 | CC(C)n1cc(C(=O)C2CCN(C(=O)C[C@@H](C)Cc3nc4ccccc4c(=O)[nH]3)CC2)cn1 [Compound C4, 2-{(S)-4-[4-(1-Isopropyl-1H-pyrazole-4-carbonyl)-piperidin-1-yl]-2-methyl-4-oxo-butyl}-3H-quinazolin-4-one] | 4.7e-09 M | – | – | –
7 | CC(C)n1cc(C(=O)C2CCN(C(=O)C[C@H](C)Cc3nc4ccccc4c(=O)[nH]3)CC2)cn1 [Compound C5, 2-{(R)-4-[4-(1-Isopropyl-1H-pyrazole-4-carbonyl)-piperidin-1-yl]-2-methyl-4-oxo-butyl}-3H-quinazolin-4-one] | 3.9e-08 M | – | – | –
8 | CC(C)[C@H](CC(=O)N1CCC(C(=O)c2cnn(C)c2)CC1)Cc1nc2ccccc2c(=O)[nH]1 [Compound C8, 2-((S)-3-Methyl-2-{2-[4-(1-methyl-1H-pyrazole-4-carbonyl)-piperidin-1-yl]-2-oxo-ethyl}-butyl)-3H-quinazolin-4-one] | 9.2e-09 M | – | – | –
9 | CC(C)[C@@H](CC(=O)N1CCC(C(=O)c2cnn(C)c2)CC1)Cc1nc2ccccc2c(=O)[nH]1 [Compound C9, 2-((R)-3-Methyl-2-{2-[4-(1-methyl-1H-pyrazole-4-carbonyl)-piperidin-1-yl]-2-oxo-ethyl}-butyl)-3H-quinazolin-4-one] | 1.4e-07 M | – | – | –
10 | Cn1cc(C(=O)C2CCN(C(=O)CC3(Cc4nc5ccccc5c(=O)[nH]4)CC3)CC2)cn1 [Compound C12, 2-(1-{2-[4-(1-Methyl-1H-pyrazole-4-carbonyl)-piperidin-1-yl]-2-oxo-ethyl}-cyclopropylmethyl)-3H-quinazolin-4-one] | 2.3e-08 M | 1e-09 M | 2.2e-09 M | –
11 | Cn1cc(C(=O)C2CCN(C(=O)C(C)(C)CCc3nc4ccccc4c(=O)[nH]3)CC2)cn1 [Compound C13, 2-{3,3-Dimethyl-4-[4-(1-methyl-1H-pyrazole-4-carbonyl)-piperidin-1-yl]-4-oxo-butyl}-3H-quinazolin-4-one] | 2.3e-06 M | 4.2e-07 M | 6.1e-07 M | –
12 | Cn1cc(C(=O)C2CCN(C(=O)CCC(C)(C)c3nc4ccccc4c(=O)[nH]3)CC2)cn1 [Compound C14, 2-{1,1-Dimethyl-4-[4-(1-methyl-1H-pyrazole-4-carbonyl)-piperidin-1-yl]-4-oxo-butyl}-3H-quinazolin-4-one] | – | 4.4e-08 M | 6.3e-08 M | –
13 | COc1ccc(C(=O)C2CCN(C(=O)CCC(C)(C)c3nc4ccccc4c(=O)[nH]3)CC2)cc1 [Compound C15, 2-{4-[4-(4-Methoxy-benzoyl)-piperidin-1-yl]-1,1-dimethyl-4-oxo-butyl}-3H-quinazolin-4-one] | 6.2e-08 M | 5e-09 M | 9.2e-09 M | –
14 | Cn1cc(C(=O)C2CCN(C(=O)COCc3nc4c(F)cc(F)cc4c(=O)[nH]3)CC2)cn1 [Compound C27, 6,8-Difluoro-2-{2-[4-(1-methyl-1H-pyrazole-4-carbonyl)-piperidin-1-yl]-2-oxo-ethoxymethyl}-3H-quinazolin-4-one] | – | – | – | IC50 (TNKS2): 1.3e-08 M; IC50 (TNKS1): 2.9e-08 M
15 | COc1ccc(C(=O)C2CCN(C(=O)NCCc3nc4ccccc4c(=O)[nH]3)CC2)cc1 [Compound C29, 4-(4-Methoxy-benzoyl)-piperidine-1-carboxylic acid [2-(4-oxo-3,4-dihydro-quinazolin-2-yl)-ethyl]-amide] | – | 8.4e-10 M | 1.8e-09 M | –
16 | COc1ccc(C(=O)C2CCN(C(=O)N(C)CCc3nc4ccccc4c(=O)[nH]3)CC2)cc1 [Compound C30, 4-(4-Methoxy-benzoyl)-piperidine-1-carboxylic acid methyl-[2-(4-oxo-3,4-dihydro-quinazolin-2-yl)-ethyl]-amide] | – | 5.7e-10 M | 6.2e-10 M | –
17 | CC(C)(CC(=O)N1CCC(C(=O)c2cccc(C(=O)O)c2)CC1)Cc1nc2ccccc2c(=O)[nH]1 [Compound C35, 3-{1-[3,3-Dimethyl-4-(4-oxo-3,4-dihydro-quinazolin-2-yl)-butyryl]-piperidine-4-carbonyl}-benzoic Acid] | 5.5e-06 M | – | – | –
18 | Cc1cccc2c(=O)[nH]c(CC(C)(C)CC(=O)N3CCC(C(=O)c4cccc(C(=O)O)c4)CC3)nc12 [Compound C37, 3-{1-[3,3-Dimethyl-4-(8-methyl-4-oxo-3,4-dihydro-quinazolin-2-yl)-butyryl]-piperidine-4-carbonyl}-benzoic Acid] | 4.8e-07 M | – | – | –
19 | COC(=O)c1cccc(C(=O)C2CCN(C(=O)C[C@H](C)Cc3nc4c(C)cccc4c(=O)[nH]3)CC2)c1 [Compound C42, 3-{1-[(R)-3-Methyl-4-(8-methyl-4-oxo-3,4-dihydro-quinazolin-2-yl)-butyryl]-piperidine-4-carbonyl}-benzoic Acid Methyl Ester] | 2.5e-08 M | – | – | –
20 | COC(=O)c1cccc(C(=O)C2CCN(C(=O)C[C@@H](C)Cc3nc4c(C)cccc4c(=O)[nH]3)CC2)c1 [Compound C43, 3-{1-[(S)-3-Methyl-4-(8-methyl-4-oxo-3,4-dihydro-quinazolin-2-yl)-butyryl]-piperidine-4-carbonyl}-benzoic Acid Methyl Ester] | 4.7e-10 M | – | – | –
21 | Cc1cccc2c(=O)[nH]c(C[C@@H](C)CC(=O)N3CCC(C(=O)c4cccc(C(=O)O)c4)CC3)nc12 [Compound C44, 3-{1-[(R)-3-Methyl-4-(8-methyl-4-oxo-3,4-dihydro-quinazolin-2-yl)-butyryl]-piperidine-4-carbonyl}-benzoic Acid] | 5.3e-06 M | – | – | –
22 | Cc1cccc2c(=O)[nH]c(C[C@H](C)CC(=O)N3CCC(C(=O)c4cccc(C(=O)O)c4)CC3)nc12 [Compound C45, 3-{1-[(S)-3-Methyl-4-(8-methyl-4-oxo-3,4-dihydro-quinazolin-2-yl)-butyryl]-piperidine-4-carbonyl}-benzoic acid] | 8.9e-08 M | – | – | –
